In PMC3685217, “Activation of IP3 receptors requires an endogenous 1-8-14 calmodulin-binding motif” (Biochemical Journal, 2012):
“And” between values parts separate entries of the source, which are not always exact repeats. Identical values can stand only once.

Tests used:
[1] = biological target: T1, NT (residues 1–604) of rat IP3R1 (Rattus norvegicus, UniProt P29994, DEL318-332); assay: [3H]IP3 equilibrium-competition binding to NT
T1 construct: The NT (residues 1–604) and IBC (residues 224–604) of rat IP3R1; His6 (N, cleaved yes); made in house; host or cells: Escherichia coli BL21(DE3)
T1 sequence (P29994 1-589 isoform P29994-2 limits assumed, stated change not applied): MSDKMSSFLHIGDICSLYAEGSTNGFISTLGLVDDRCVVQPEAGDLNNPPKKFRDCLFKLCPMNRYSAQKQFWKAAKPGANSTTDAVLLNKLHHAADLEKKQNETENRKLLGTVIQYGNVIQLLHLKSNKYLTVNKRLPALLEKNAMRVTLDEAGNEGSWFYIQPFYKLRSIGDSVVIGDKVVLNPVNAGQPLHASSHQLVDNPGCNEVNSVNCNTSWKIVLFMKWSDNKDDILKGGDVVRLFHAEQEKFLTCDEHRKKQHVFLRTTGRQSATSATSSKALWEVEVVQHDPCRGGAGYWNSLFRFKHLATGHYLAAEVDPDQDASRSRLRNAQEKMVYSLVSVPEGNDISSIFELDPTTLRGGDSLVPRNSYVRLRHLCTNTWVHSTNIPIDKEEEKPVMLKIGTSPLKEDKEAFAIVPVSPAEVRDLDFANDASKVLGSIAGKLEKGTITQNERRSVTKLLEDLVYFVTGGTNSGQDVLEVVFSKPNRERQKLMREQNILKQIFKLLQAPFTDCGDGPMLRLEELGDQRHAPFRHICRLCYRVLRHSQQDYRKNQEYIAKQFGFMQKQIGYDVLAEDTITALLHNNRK
Description: (§1) The NT (residues 1–604) and IBC (residues 224–604) of rat IP3R1 were amplified by PCR from the full-length receptor clone lacking the SI splice region (GenBank® accession number GQ233032.1) as described previously. The fragments were ligated into pTrcHis A (Invitrogen) to allow expression of N-terminally His6-tagged proteins. Mutagenesis of the 1-8-14 motif within the NT used the QuikChange® II XL site-directed mutagenesis kit (Stratagene) for single mutants (F53E, L60E, Y66E and K52E) and the QuikChange® multi-site-directed mutagenesis kit for the double mutant (F53E and Y66E). The primers used are listed in Supplementary Table S2 (at http://www.BiochemJ.org/bj/449/bj4490039add.htm). The same primers and conditions were used for mutagenesis of full-length IP3R using IP3R1 in the pENTR 1A vector. Full-length constructs were subcloned into pcDNA3.2/V5-DEST for expression in DT40 cells. The complete sequence of every mutant construct was verified by sequencing.
(§2) The pTrcHis constructs were used for expression of N-terminally His6-tagged proteins in Escherichia coli strain BL21(DE3) cells. Before use for [^3H]IP3 binding, proteins were cleaved from the His6 tags using biotinylated thrombin (Novagen) at the engineered thrombin-cleavage site. Complete cleavage was verified by Western blotting using an anti-His6 antibody. The proteins were used for [^3H]IP3 binding without further purification.
(§3) Equilibrium-competition binding assays were performed at 4°C for 5 min in CLM (500 μl) with a free Ca^2+ concentration of 220 nM and containing [^3H]IP3 (0.75–1.5 nM), bacterial lysate (10 μg of protein for IBC and 100 μg of protein for NT) or cerebellar membranes (50 μg of protein) and competing ligands. Non-specific binding was defined by addition of 10 μM IP3. Bound and free [^3H]IP3 were separated by centrifugation at 20000 g for 5 min, after addition of poly(ethylene glycol) (15% final concentration) and γ-globulin (0.75 mg) for soluble proteins. Results were analysed by fitting to a Hill equation (using GraphPad Prism) from which the IC50 (half-maximal inhibitory concentration) and thereby the Kd (equilibrium dissociation constant) were calculated.

[2] = biological target: T2, NT of rat IP3R1 with F53E mutation (Rattus norvegicus, UniProt P29994, DEL318-332/F53E); assay: [3H]IP3 equilibrium-competition binding to NT F53E
T2 construct: The NT (residues 1–604) and IBC (residues 224–604) of rat IP3R1; His6 (N, cleaved yes); made in house; host or cells: Escherichia coli BL21(DE3)
T2 sequence (P29994 1-589 isoform P29994-2 F53E limits assumed): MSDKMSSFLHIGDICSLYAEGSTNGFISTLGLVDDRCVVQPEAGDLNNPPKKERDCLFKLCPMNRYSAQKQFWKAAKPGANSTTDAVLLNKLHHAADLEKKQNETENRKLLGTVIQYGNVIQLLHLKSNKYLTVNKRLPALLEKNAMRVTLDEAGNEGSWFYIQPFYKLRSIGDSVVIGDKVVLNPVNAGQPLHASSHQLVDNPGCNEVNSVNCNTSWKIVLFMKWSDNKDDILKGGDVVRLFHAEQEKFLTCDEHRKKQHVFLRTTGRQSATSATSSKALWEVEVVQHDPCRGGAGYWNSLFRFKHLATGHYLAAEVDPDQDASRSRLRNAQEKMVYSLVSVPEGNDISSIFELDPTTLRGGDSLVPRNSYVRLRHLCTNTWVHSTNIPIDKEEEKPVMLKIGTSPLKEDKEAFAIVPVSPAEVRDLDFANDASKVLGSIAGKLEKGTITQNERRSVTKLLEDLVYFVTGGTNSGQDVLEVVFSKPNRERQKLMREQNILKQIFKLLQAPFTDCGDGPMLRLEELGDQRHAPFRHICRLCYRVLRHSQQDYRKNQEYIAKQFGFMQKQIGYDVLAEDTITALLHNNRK
Description: as §1, §2, §3

[3] = biological target: T3, NT of rat IP3R1 with L60E mutation (Rattus norvegicus, UniProt P29994, DEL318-332/L60E); assay: [3H]IP3 equilibrium-competition binding to NT L60E
T3 construct: The NT (residues 1–604) and IBC (residues 224–604) of rat IP3R1; His6 (N, cleaved yes); made in house; host or cells: Escherichia coli BL21(DE3)
T3 sequence (P29994 1-589 isoform P29994-2 L60E limits assumed): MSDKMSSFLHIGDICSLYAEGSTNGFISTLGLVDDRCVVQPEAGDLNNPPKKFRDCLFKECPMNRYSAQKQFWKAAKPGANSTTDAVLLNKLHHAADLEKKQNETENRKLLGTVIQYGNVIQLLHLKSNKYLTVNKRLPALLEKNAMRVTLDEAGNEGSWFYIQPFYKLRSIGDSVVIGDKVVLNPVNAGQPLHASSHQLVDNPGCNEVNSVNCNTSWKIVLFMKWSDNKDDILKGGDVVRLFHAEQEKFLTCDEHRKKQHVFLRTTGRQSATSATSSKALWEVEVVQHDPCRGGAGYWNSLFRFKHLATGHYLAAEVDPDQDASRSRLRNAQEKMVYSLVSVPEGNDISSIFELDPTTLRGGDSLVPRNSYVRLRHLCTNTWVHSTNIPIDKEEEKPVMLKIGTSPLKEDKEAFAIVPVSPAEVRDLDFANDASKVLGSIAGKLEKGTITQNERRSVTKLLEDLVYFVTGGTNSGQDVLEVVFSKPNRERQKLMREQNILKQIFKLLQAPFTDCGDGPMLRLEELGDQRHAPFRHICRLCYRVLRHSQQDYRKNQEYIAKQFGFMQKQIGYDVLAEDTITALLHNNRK
Description: as §1, §2, §3

[4] = biological target: T4, NT of rat IP3R1 with Y66E mutation (Rattus norvegicus, UniProt P29994, DEL318-332/Y66E); assay: [3H]IP3 equilibrium-competition binding to NT Y66E
T4 construct: The NT (residues 1–604) and IBC (residues 224–604) of rat IP3R1; His6 (N, cleaved yes); made in house; host or cells: Escherichia coli BL21(DE3)
T4 sequence (P29994 1-589 isoform P29994-2 Y66E limits assumed): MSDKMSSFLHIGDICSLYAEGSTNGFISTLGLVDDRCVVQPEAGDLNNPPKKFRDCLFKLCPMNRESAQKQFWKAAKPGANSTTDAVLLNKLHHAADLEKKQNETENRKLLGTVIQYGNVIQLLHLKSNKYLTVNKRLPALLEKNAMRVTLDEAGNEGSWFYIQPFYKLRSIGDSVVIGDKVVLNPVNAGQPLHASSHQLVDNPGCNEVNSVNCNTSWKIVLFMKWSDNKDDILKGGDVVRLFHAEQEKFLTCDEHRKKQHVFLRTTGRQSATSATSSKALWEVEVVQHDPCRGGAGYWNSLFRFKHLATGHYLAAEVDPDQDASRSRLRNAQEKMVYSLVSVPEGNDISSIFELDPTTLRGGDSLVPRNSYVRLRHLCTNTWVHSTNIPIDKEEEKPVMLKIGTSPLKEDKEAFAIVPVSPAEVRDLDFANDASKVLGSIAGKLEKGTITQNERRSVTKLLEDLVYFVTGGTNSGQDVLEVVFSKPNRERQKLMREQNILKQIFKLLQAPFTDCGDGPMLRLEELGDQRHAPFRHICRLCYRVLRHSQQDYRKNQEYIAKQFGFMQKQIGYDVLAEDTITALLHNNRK
Description: as §1, §2, §3

[5] = biological target: T5, full-length IP3R (wild-type IP3R1) (Rattus norvegicus, UniProt P29994); assay: [3H]IP3 binding to full-length IP3R in permeabilized DT40 cells; details: 100 μM peptide, [3H]IP3 1.5 nM, not increased for L60E or FY mutants
T5 construct: expressed in transfected cells; host or cells: DT40 cells (chicken B cells, all endogenous IP3R genes disrupted) stably expressing rat IP3R1

[6] = biological target: T6, IBC (residues 224–604) of rat IP3R1 (Rattus norvegicus, UniProt P29994, DEL318-332); assay: [3H]IP3 equilibrium-competition binding to IBC
T6 construct: IBC (residues 224–604) of rat IP3R1 were amplified by PCR; His6 (N, cleaved yes); made in house; host or cells: Escherichia coli BL21(DE3)
T6 sequence (P29994 224-589 isoform P29994-2 limits assumed, stated change not applied): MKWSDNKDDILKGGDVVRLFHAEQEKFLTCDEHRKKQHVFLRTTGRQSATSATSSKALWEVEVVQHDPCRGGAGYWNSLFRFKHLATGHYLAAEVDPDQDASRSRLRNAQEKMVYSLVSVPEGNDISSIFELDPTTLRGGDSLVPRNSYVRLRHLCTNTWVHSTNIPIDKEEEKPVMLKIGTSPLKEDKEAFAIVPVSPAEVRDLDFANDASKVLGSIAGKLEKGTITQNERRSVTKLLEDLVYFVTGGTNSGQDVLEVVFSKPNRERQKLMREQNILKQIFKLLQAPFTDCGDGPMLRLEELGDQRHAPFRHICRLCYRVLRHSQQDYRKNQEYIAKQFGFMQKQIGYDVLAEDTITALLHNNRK
Description: as §1, §2, §3

effect on specific [3H]IP3 binding to the NT ([1]; 100 μM peptide, [3H]IP3 1.5 nM)	effect on specific [3H]IP3 binding to NT F53E ([2]; 100 μM peptide, [3H]IP3 1.5 nM)	effect on specific [3H]IP3 binding to NT L60E ([3]; 100 μM peptide, [3H]IP3 1.5 nM)	effect on specific [3H]IP3 binding to NT Y66E ([4]; 100 μM peptide, [3H]IP3 1.5 nM)	effect on IP3 binding to full-length wild-type IP3R [5]	Affinity relative to NT (heparin), Kd^NT/Kd^mutant ([1]; fragment NT) [fold]	Kd, ng/ml (heparin) ([1]; fragment NT) [ng/mL]	pKd, /g/ml heparin ([1]; fragment NT, mean±S.E.M., n≥3)	Affinity relative to NT (heparin), Kd^NT/Kd^mutant ([2]; fragment NT F53E) [fold]	Kd, ng/ml (heparin) ([2]; fragment NT F53E) [ng/mL]	pKd, /g/ml heparin ([2]; fragment NT F53E, mean±S.E.M., n≥3)	Affinity relative to NT (heparin), Kd^NT/Kd^mutant ([3]; fragment NT L60E) [fold]	Kd, ng/ml (heparin) ([3]; fragment NT L60E) [ng/mL]	pKd, /g/ml heparin ([3]; fragment NT L60E, mean±S.E.M., n≥3)	Affinity relative to NT (heparin), Kd^NT/Kd^mutant ([4]; fragment NT Y66E) [fold]	Kd, ng/ml (heparin) ([4]; fragment NT Y66E) [ng/mL]	pKd, /g/ml heparin ([4]; fragment NT Y66E, mean±S.E.M., n≥3)	Kd, ng/ml (heparin) ([6]; fragment IBC) [ng/mL]	Affinity relative to NT (heparin), Kd^NT/Kd^mutant ([6]; fragment IBC (SD removed))	pKd, /g/ml heparin ([6]; fragment IBC, mean±S.E.M., n≥3)	Molecule
increased	neither peptide had any effect	neither peptide had any effect	neither peptide had any effect	increased																CC[C@H](C)[C@H](NC(=O)[C@H](C)NC(=O)[C@H](CCCNC(=N)N)NC(=O)[C@@H](NC(=O)[C@H](C)NC(=O)[C@H](Cc1c[nH]cn1)NC(=O)CNC(=O)[C@@H](NC(=O)[C@H](CCCCN)NC(=O)[C@H](CCC(N)=O)NC(=O)[C@H](Cc1c[nH]c2ccccc12)NC(=O)[C@H](CCCCN)NC(=O)[C@H](CCCNC(=N)N)NC(=O)[C@H](CCCNC(=N)N)NC(C)=O)[C@@H](C)O)C(C)C)C(=O)NCC(=O)N[C@@H](CCCNC(=N)N)C(=O)N[C@@H](CC(C)C)C(N)=O [MLCK peptide, Ac-RRKWQKTGHAVRAIGRL-NH2]
					1	239	6.62±0.06 /g/ml	2	120	6.92±0.06 /g/ml	1.2	200	6.70±0.04 /g/ml	1.4	171	6.77±0.03 /g/ml	117	2 fold and 2.0 fold	6.93±0.04 /g/ml	heparin
